# In US8609695B2, “Methods of treating and/or suppressing insulin resistance” (Endorecherche, Inc., priority 1999, dated 2013):
# Key:
# [1] = test system: aged Sprague-Dawley rats; details: reduced from 600, without affecting food intake; cited from earlier work
# [2] = test system: lean and obese Zucker female rats; test: Energy balance and lipid-lipoprotein metabolism in Zucker female rats (Example 8B); assay type: in vivo, Rattus norvegicus; details: for Lipoprotein lipase activity White retroperitoneal / Lipoprotein lipase activity soleus / Plasma glucose / Plasma insulin / Plasma total cholesterol / Plasma triglycerides / Weight: 2.5 mg/kg orally once daily, 14 days
# Procedure: The objective of this study was to determine the cffect of EM-652.HCl on energy balance and lipid-lipoprotein metabolism in lean and obese Zucker female rats. For this purpose, EM-652.HCl (2.5 mg/kg) was administered orally (gavage) once daily for 14 days to intact lean and obese Zucker female rats.
# d) Diet: • During the acclimation period, rats received a commercial rodent diet (Purina, #5075) and tap water ad libitum. During study period, rats received the following diet (diet #3) composed of (g/100 g): Starch, 31.2; Dextrose, 31.2; Casein, 20.0; Corn oil, 6.4; dl-Methionine, 0.3; Vitamin mix, 1.0; AIN-76 mineral mix, 4.9; Fiber, 5.0. Rats were fasted (with access to water only) around 07 h00 the morning of their necropsy day. Randomixation:
# Sixteen lean and sixteen obese intact female rats were assigned to 4 groups of 8 rats for conduct of the study outlined below.
# Administration of the tested compound or vehicle started on Day 1 of the study. The tested compound EM-652.HCl was given as suspension in 0.4% methylcellulose by oral gavage (0.5 ml/gavage/rat) once daily for 14 days. Rats from control groups received the vehicle alone (0.5 ml/gavage/rat) for the same time period.
# During the acclimation period, animals were weighed two days prior to the start of dosing for randomization. Then, rats were weighed on day 1 of the study and every 2 days during the study period as well as on the day of necropsy. Body weights were recorded with a precision of 1 g.
# Following an approximative 6-hour fasting period, animals were necropsied (approximately 30 hours after the last dosing). They were anesthesized with ketamine-xylazine and blood drawn by cardiac punction.
# Blood lipids (Total cholesterol (CHOL) and Triglycerides (TG)) and glucose were measured on frozen plasma samples using the Boehringer Mannheim Diagnostic Hitachi 911 Analyzer (Boehringer Mannheim Diagnostic Laboratory Systems). Circulating hormones and substrates (Leptin, Insulin, corticosterone) were measured on frozen plasma samples with the following kits: • Leptin: Linco RIA kit • Insulin: Linco RIA kit Organs and Tissues Collected
# The retroperitoneal adipose tissue and the soleus (muscle) were collected and frozen in liquid nitrogen for further determination of lipoprotein lipase (LPL) activity.
# [3] = test system: human endometrial adenocarcinoma Ishikawa cells; test: Alkaline phosphatase activity in Ishikawa cells (Example 11); assay type: cell-based; details: for Stimulation of alkaline phosphatase by tested compounds % of 1 nM E2 stimulation: Ishikawa cells, five days incubation, intrinsic estrogenic activity, hydrochloride
# Procedure: The human Ishikawa cell line derived from a well differentiated endometrial adenocarcinoma was kindly provided by Dr. Erlio Gurpide, The Mount Sinai Medical Center, New York, N.Y. The Ishikawa cells were routinely maintained in Eagle's Minimum Essential Medium (MEM) containing 5% (vol/vol) FBS and supplemented with 100 U/ml penicillin, 100 μg/ml streptomycin, 0.1 mM Non-essential Amino Acids solution. Cells were plated in Falcon T75 flasks at a density of 1.5×10^6 cells at 37 C.
# Twenty four hours before the start of an experiment, the medium of near confluent Ishikawa cells was replaced by fresh estrogen-free basal medium (EFBM) consisting of a 1:1 (v:v) mixture of phenol red-free Ham's F-12 and Dulbecco's Modified Eagle's Medium (DMEM) supplemented with 100 U/mL penicillin, 100 μg/mL Streptomycin, 2 mM glutamine, and 5% FBS treated twice with dextran-coated charcoal to remove endogenous steroids. Cells were then harvested by 0.1% pancreatin (Sigma) and 0.25 mM HEPES, resuspended in EFBM and plated in Falcon 96 well flat-bottomed microtiter plates at a density of 2.2×10^4 cells/well in a volume of 100 μl and allowed to adhere to the surface of the plates for 24 h. Thereafter, medium was replaced with fresh EFBM containing the indicated concentrations of compounds in a final volume of 200 μl. Cells were incubated for five days, with a medium change after 48 h.
# At the end of the incubation period, microtiter plates were inverted and growth medium was decanted. The plates were rinsed with 200 μL by well of PBS (0.15M NaCl, 10 mM sodium phosphate, pH 7.4). PBS was then removed from the plates while carefully leaving some residual PBS, and the wash procedure was repeated once. The buffered saline was then decanted, and the inverted plates were blotted gently on a paper towel. Following replacement of the covers, the plates were placed at −80 C for 15 min followed by thawing at room temperature for 10 min. The plates were then placed on ice, and 50 μl of an ice-cold solution containing 5 mM p-nitrophenyl phosphate, 0.24 mM MgCl2, and 1 M diethanolamine (pH 9.8) was added. Plates were then warmed to room temperature, and the yellow color from the production of p-nitrophenyl was allowed to develop (8 min). Plates were monitored at 405 nm in an enzyme-linked immunosorbent assay plate reader (BIO-RAD, model 2550 EIA Reader).
# Dose-response curves as well as IC50 values were calculated using a weighted iterative nonlinear squares regression.
# [4] = test system: ovariectomized female rats; test: Uterine weight, fat and lipid, 20-day treatment (Example 13); assay type: in vivo, Rattus norvegicus; details: 20 days
# Procedure: The objective of this study was to compare the effect on uterine, weight, fat and blood lipids following treatment with EM-652.HCl, ERA-923 and lasofoxifene, administered alone or in combination with EM-652.HCl, to ovariectomized female rats. For this purpose, each compound was administered orally for 20 days to ovariectomized female rats and at the end of the treatment period, the uterus and fat were collected and weighed.
# d) Diet: • Certified Rodent feed (Lab Diet #5002, pellets) and tap water were provided ad libitum. Randomization:
# Seventy rats were separated into 7 groups of 9 to 11 animals for conduct of the study outlined below:
# Animals from groups 2 to 9 were ovariectomized under Isoflurane-induced anesthesia on Day 7 of the study.
# The vehicle or tested compounds were given as suspension in 0.4% methylcellulose by oral gavage (0.5 ml/gavage/rat) from Day 2 to Day 21 of the study.
# Rats were weighed on Study Day 1 and at the necropsy (SD 22).
# Approximately 24 hours after the last dosing, overnight fasted rats under Isoflurane-induced anesthesia were killed by exsanguination at the abdominal aorta.
# Uteri and retroperitonal adipose tissue were removed and weighed.
# [5] = OVX rats, commercial rodent diet, 0.5 mg oral, EM-652.HCl 2.5 mg in combinations
smiles,measurement,setting,value
"C[C@]12CC[C@H](O)CC1=CC[C@@H]1[C@@H]2CC[C@]2(C)C(=O)CC[C@@H]12 [DHEA, dehydroepiandrosterone]",body weight,[1],550 g
"CC1=C(c2ccc(O)cc2)[C@H](c2ccc(OCCN3CCCCC3)cc2)Oc2cc(O)ccc21.Cl [EM-652.HCl, (S)-(+)-7-hydroxy-3-(4′-hydroxyphenyl)-4-methyl-2-(4″-(2′″-piperidino-ethoxy)phenyl)-2H-1-benxopyran hydrochloride]",Lipoprotein lipase activity White retroperitoneal,[2]; lean Zucker female rats,1349 ± 246 μU/g protein
same,Lipoprotein lipase activity soleus,[2]; lean Zucker female rats,60.8 ± 11.1 μU/g protein
same,Plasma glucose,[2]; lean Zucker female rats,9.60 ± 0.41 mmol/L
same,Plasma insulin,[2]; lean Zucker female rats,0.063 ± 0.012 nmol/L
same,Plasma total cholesterol,[2]; lean Zucker female rats,1.57 ± 0.14 mmol/L
same,Plasma triglycerides,[2]; lean Zucker female rats,0.83 ± 0.07 mmol/L
same,Weight,[2]; lean Zucker female rats,154 ± 5 g
same,reduction of plasma insulin,"[2]; lean female Zucker rats, 2.5 mg/kg/day",48%
same,Lipoprotein lipase activity White retroperitoneal,[2]; obese Zucker female rats,3819 ± 485 μU/g protein
same,Lipoprotein lipase activity soleus,[2]; obese Zucker female rats,36.6 ± 7.1 μU/g protein
same,Plasma glucose,[2]; obese Zucker female rats,11.70 ± 0.47 mmol/L
same,Plasma insulin,[2]; obese Zucker female rats,0.515 ± 0.091 nmol/L
same,Plasma total cholesterol,[2]; obese Zucker female rats,3.27 ± 0.97 mmol/L
same,Plasma triglycerides,[2]; obese Zucker female rats,22.20 ± 4.44 mmol/L
same,Weight,[2]; obese Zucker female rats,291 ± 9 g
same,effect on plasma insulin,"[2]; obese female Zucker rats, 2.5 mg/kg/day",no significant effect
same,IC50,"[3]; Homo sapiens, Ishikawa, 120 h, read-out: Inhibition of 1 nM E2 stimulation of alkaline phosphatase by tested compounds IC50",1.52 ± 0.22 nM
same,Stimulation of alkaline phosphatase by tested compounds % of 1 nM E2 stimulation,[3],do not show significant estrogenic activity
same,Stimulation of alkaline phosphatase by tested compounds % of 1 nM E2 stimulation,[3]; listed as EM-652•HCl,1.88 ± 0.26 (22) % of 1 nM E2 stimulation
same,OVX-induced increase in total serum cholesterol levels,[4]; 0.5 mg,completely prevented
same,prevention of body weight increase induced by ovariectomy,"[4]; OVX rats, 0.5 mg",64%
same,Cholesterol,[4]; [5],1.00 ± 0.11 mmol/L
same,Final Body Weight,[4]; [5],238 ± 4 g
